In article PMC10787893, “Expression and characterization of the new antimicrobial peptide AP138L-arg26 anti Staphylococcus aureus” (Applied Microbiology and Biotechnology, 2024):
Converted amounts (≈) assume the structure as drawn. Where two headings read alike, the source gives them in different places. Bridge positions count the residues as written; N and C are the ends. Peptide text beside a SMILES is read from it.

How the values were obtained:
[1] = test system: Staphylococcus aureus ATCC 25923; assay: MIC and MBC, broth microdilution; format: cell-based
Procedure: (§1) To determine the MIC values of AP138L-arg26, we used the broth microdilution technique as previously described (Andrews. [2001]; Wiegand et al. [2008]). In brief, AP138L-arg26 peptide were diluted from 1280 to 2.5 µg/mL and added to a 96-cells plate with 10 µL per well. The bacteria in the logarithmic stage were diluted to 10^5 CFU/mL with 90 µL per well. […] The MBC method was also based on the CLSI 2021 guidelines.

[2] = test system: Staphylococcus aureus ATCC 43300; assay: MIC and MBC, broth microdilution; format: cell-based
Procedure: as §1

[3] = test system: Staphylococcus aureus CAAS-FRI-2023-01; assay: MIC and MBC, broth microdilution; format: cell-based
Procedure: as §1

[4] = test system: Staphylococcus aureus CAAS-FRI-2023-02; assay: MIC and MBC, broth microdilution; format: cell-based
Procedure: as §1

[5] = test system: Staphylococcus aureus CVCC 546; assay: MIC and MBC, broth microdilution; format: cell-based
Procedure: as §1

[6] = test system: Staphylococcus aureus E48; assay: MIC and MBC, broth microdilution; format: cell-based
Procedure: as §1

[7] = test system: Staphylococcus epidermidis ATCC 12228; assay: MIC and MBC, broth microdilution; format: cell-based
Procedure: as §1

[8] = test system: Staphylococcus epidermidis ATCC 35984; assay: MIC and MBC, broth microdilution; format: cell-based
Procedure: as §1

[9] = test system: Streptococcus agalactiae ATCC 13813; assay: MIC and MBC, broth microdilution; format: cell-based
Procedure: as §1

[10] = test system: Streptococcus agalactiae CAU-FRI-2022-01; assay: MIC and MBC, broth microdilution; format: cell-based
Procedure: as §1

[11] = test system: Streptococcus agalactiae CAU-FRI-2022-02; assay: MIC and MBC, broth microdilution; format: cell-based
Procedure: as §1

[12] = test system: Streptococcus dysgalactiae CVCC 3938; assay: MIC and MBC, broth microdilution; format: cell-based
Procedure: as §1

[13] = test system: selected standard and clinical Gram-positive bacteria; assay: MIC/MBC summary over the panel of strains; format: cell-based, S. aureus, S. epidermidis, S. dysgalactiae, S. agalactiae
Procedure: as §1

[14] = test system: S. aureus ATCC 43300; assay: Post-antibiotic effect (PAE) assay; format: cell-based, Staphylococcus aureus
Description: The method of PAE of AP138L-arg26 against MRSA ATCC 43300 or S. aureus CVCC 546 was described previously (Wang et al. [2018]). The formula is PAE = T − C (T is the time required for the number of colonies in the sample treatment group to increase by tenfold, and C is the time required for the untreated group).

[15] = test system: S. aureus CVCC 546; assay: Growth curve of S. aureus; format: cell-based, Staphylococcus aureus; conditions: AP138L-arg26 8 µg/mL (2 × MIC), ceftiofur sodium 0.25 µg/mL (1/8 MIC), alone or combined; 1 × 10^5 CFU/mL
Procedure: Samples were taken during the logarithmic growth of S. aureus and diluted to 1 × 10^5 CFU/mL (Delpech et al. [2019]). Different concentrations of AP138L-arg26, ceftiofur sodium, or a combination of them with an equal volume of bacteria were added to a 96-well microplate. The growth curves were recorded using a fully automatic growth curve recording instrument.

[16] = test system: S. aureus CVCC 546; assay: Thermal stability, MIC after treatment; format: physicochemical, Staphylococcus aureus
[17] = test system: S. aureus CVCC 546; assay: pH stability, MIC after treatment; format: physicochemical, Staphylococcus aureus
[18] = test system: S. aureus CVCC 546; assay: Artificial gastric juice stability, MIC after treatment; format: in vitro ADME, Staphylococcus aureus
[19] = test system: S. aureus CVCC 546; assay: Artificial intestinal juice (trypsin) stability, MIC after treatment; format: in vitro ADME, Staphylococcus aureus; conditions: then MIC assay
[20] = test system: S. aureus; assay: Membrane fluidity assay, Laurdan GP; format: cell-based, Staphylococcus aureus; conditions: 2 × MIC; 10 µM Laurdan; untreated 0.22
Procedure: The final concentration of 10 µM Laurdan was used to detect the effect of AP138L-arg26 on bacterial cell membrane fluidity (Shi et al. [2022]). Briefly, (1) co-incubation of bacteria with Laurdan; (2) the stained bacteria are co-incubated with the peptide; (3) spectrophotometer (Tecan, Männedorf, Switzerland) detection. The calculation formula: generalized polarization (GP) = (I435 − I490)/(I435 + I490).

[21] = test system: S. aureus CVCC 546; conditions: for FIC: FIC = MICc/MICa
Procedure: The synergistic effects of AP138L-arg26 with different antibiotics were evaluated using a checkerboard assay. The synergistic effect was calculated using the FICI as follows: FICI = FIC of AP138L-arg26 + FIC of antibiotic; FIC = MICc/MICa, where MICc is the MIC of the peptide and antibiotic in combination, and MICa is the MIC of the peptide/antibiotic alone (Blier et al. [2010]). Three parallel experiments were performed for each group. The efficacy of combination therapy was defined as FICI ≤ 0.5, 0.5 < FICI ≤ 1, 1 < FICI ≤ 4, and FICI > 4 indicating synergy, addition, no difference, and antagonism, respectively.

[22] = 99.99% of bacteria killed, plated on MHA
[23] = broth microdilution, 10^5 CFU/mL, 37 °C, 18 h

CC[C@H](C)[C@@H]1NC(=O)[C@H](CO)NC(=O)[C@H](CCCCN)NC(=O)[C@@H]2CSSC[C@@H](C(=O)N[C@@H](Cc3ccc(O)cc3)C(=O)O)NC(=O)[C@H](CCCCN)NC(=O)[C@@H]3CSSC[C@H](NC(=O)[C@H](CCCNC(=N)N)NC(=O)[C@H](CC(C)C)NC(=O)[C@H](CC(=O)O)NC(=O)[C@H](CC(=O)O)NC(=O)[C@H](CCC(=O)O)NC(=O)[C@H](CO)NC(=O)[C@H](Cc4c[nH]c5ccccc45)NC(=O)[C@@H]4CCCN4C(=O)CNC(=O)[C@H](CC(N)=O)NC(=O)[C@@H](NC(=O)CNC(=O)[C@H](Cc4ccccc4)NC(=O)CN)CSSC[C@H](NC(=O)[C@H](Cc4ccc(O)cc4)NC(=O)CNC(=O)CNC(=O)[C@H](CCCNC(=N)N)NC(=O)[C@H](Cc4ccc(O)cc4)NC(=O)CNC(=O)[C@H](CCCCN)NC1=O)C(=O)N[C@@H](C)C(=O)N[C@@H](CCCCN)C(=O)NCC(=O)NCC(=O)N[C@@H](Cc1ccccc1)C(=O)N[C@@H](C(C)C)C(=O)N3)C(=O)N[C@@H](Cc1c[nH]cn1)C(=O)N[C@@H](CCCNC(=N)N)C(=O)N[C@@H](Cc1c[nH]cn1)C(=O)N2 [AP138L-arg26] (H-GFGCNGPWSEDDLRCHRHCKSIKGYRGGYCAKGGFVCKCY-OH; disulfide 4-30, 15-37, 19-39; N-terminus and C-terminus assumed)
MBC [1, 22]: 32 mg/L (≈ 7.18 µM)
MIC [1, 23]: 16 mg/L (≈ 3.59 µM)
MBC [2, 22]: 8 mg/L (≈ 1.8 µM)
MIC [2, 23]: 8 mg/L (≈ 1.8 µM)
MBC [3, 22]: 16 mg/L (≈ 3.59 µM)
MIC [3, 23]: 4 mg/L (≈ 0.898 µM)
MBC [4, 22]: 32 mg/L (≈ 7.18 µM)
MIC [4, 23]: 8 mg/L (≈ 1.8 µM)
MBC [5, 22]: 32 mg/L (≈ 7.18 µM)
MIC [5, 23]: 4 mg/L (≈ 0.898 µM)
MBC [6, 22]: 8 mg/L (≈ 1.8 µM)
MIC [6, 23]: 2 mg/L (≈ 0.449 µM)
MBC [7, 22]: 16 mg/L (≈ 3.59 µM)
MIC [7, 23]: 4 mg/L (≈ 0.898 µM)
MBC [8, 22]: 16 mg/L (≈ 3.59 µM)
MIC [8, 23]: 8 mg/L (≈ 1.8 µM)
MBC [9, 22]: 8 mg/L (≈ 1.8 µM)
MIC [9, 23]: 4 mg/L (≈ 0.898 µM)
MBC [10, 22]: 32 mg/L (≈ 7.18 µM)
MIC [10, 23]: 4 mg/L (≈ 0.898 µM)
MBC [11, 22]: 32 mg/L (≈ 7.18 µM)
MIC [11, 23]: 4 mg/L (≈ 0.898 µM)
MBC [12, 22]: 32 mg/L (≈ 7.18 µM)
MIC [12, 23]: 4 mg/L (≈ 0.898 µM)
MIC against Streptococcus ([13]; Streptococcus strains): 4 mg/L (≈ 0.898 µM)
MBC relative to MIC ([13]; over the strains of Table 2): around fourfold higher than MICs
MIC against S. aureus ([13]; range over S. aureus strains): 2 to 16 mg/L
MIC against selected standard and clinical Gram-positive bacteria ([13]; range over all strains of Table 2): 2 to 16 mg/L
MIC against selected standard and clinical Gram-positive bacteria ([13]; range over all strains, converted from µg/mL): 0.45 to 3.6 µM
PAE ([14]; 1 × MIC, PAE = T − C): 0.9 h
PAE ([14]; 2 × MIC, PAE = T − C): 1.25 h
PAE ([14]; 4 × MIC, PAE = T − C): 1.91 h
PAE ([14]; as given in the abstract, concentration not given): 1.91 h
effect on the growth of S. aureus CVCC 546 [15]: little effect on the growth
MIC, Heat (20 °C) ([16]; peptide incubated at 20 °C for 1 h, then MIC assay): 8 mg/L (≈ 1.8 µM)
MIC, Heat (40 °C) ([16]; peptide incubated at 40 °C for 1 h, then MIC assay): 8 mg/L (≈ 1.8 µM)
MIC, Heat (60 °C) ([16]; peptide incubated at 60 °C for 1 h, then MIC assay): 8 mg/L (≈ 1.8 µM)
MIC, Heat (80 °C) ([16]; peptide incubated at 80 °C for 1 h, then MIC assay): 8 mg/L (≈ 1.8 µM)
MIC, Heat (100 °C) ([16]; peptide incubated at 100 °C for 1 h, then MIC assay): > 64 mg/L
MIC, Control (without treatment) ([16]; peptide without treatment, reference value of the stability tests): 8 mg/L (≈ 1.8 µM)
antimicrobial activity after different pH values (2–10) ([17]; pH 2–10, 1 h, MIC assay): unaffected
MIC, pH 2 ([17]; peptide incubated at pH 2 for 1 h at 37 °C, then MIC assay): 8 µg/mL
MIC, pH 4 ([17]; peptide incubated at pH 4 for 1 h at 37 °C, then MIC assay): 16 µg/mL
MIC, pH 6 ([17]; peptide incubated at pH 6 for 1 h at 37 °C, then MIC assay): 16 µg/mL
MIC, pH 8 ([17]; peptide incubated at pH 8 for 1 h at 37 °C, then MIC assay): 8 µg/mL
MIC, pH 10 ([17]; peptide incubated at pH 10 for 1 h at 37 °C, then MIC assay): 16 µg/mL
antimicrobial activity after gastric juice ([18]; artificial gastric juice, MIC assay): unaffected
MIC, Gastric juice (0.25 h) ([18]; peptide in artificial gastric juice for 0.25 h, then MIC assay): 4 mg/L (≈ 0.898 µM)
MIC, Gastric juice (0.5 h) ([18]; peptide in artificial gastric juice for 0.5 h, then MIC assay): 4 mg/L (≈ 0.898 µM)
MIC, Gastric juice (1 h) ([18]; peptide in artificial gastric juice for 1 h, then MIC assay): 4 mg/L (≈ 0.898 µM)
MIC, Gastric juice (2 h) ([18]; peptide in artificial gastric juice for 2 h, then MIC assay): 8 mg/L (≈ 1.8 µM)
MIC, Intestinal juice (0.25 h) ([19]; peptide in artificial intestinal juice for 0.25 h): > 64 mg/L
MIC, Intestinal juice (0.5 h) ([19]; peptide in artificial intestinal juice for 0.5 h): > 64 mg/L
MIC, Intestinal juice (1 h) ([19]; peptide in artificial intestinal juice for 1 h): > 64 mg/L
MIC, Intestinal juice (2 h) ([19]; peptide in artificial intestinal juice for 2 h): > 64 mg/L
Laurdan GP [20]: 0.18
FIC ([21]; combination AP138L-arg26-Streptomycin sulfate): 0.5
FIC ([21]; combination AP138L-arg26-ampicillin): 1
FIC ([21]; combination AP138L-arg26-ceftiofur sodium): 0.0625
MICa ([21]; MIC of peptide/antibiotic alone, three parallel experiments): 4 µg/mL
MICc ([21]; in combination AP138L-arg26-Streptomycin sulfate): 2 µg/mL
MICc ([21]; in combination AP138L-arg26-ampicillin): 4 µg/mL
MICc ([21]; in combination AP138L-arg26-ceftiofur sodium): 0.25 µg/mL
